Where two headings read alike, the source gives them in different places. Where only a bound is given, the exact number is not on record here.

Assay [1] deals with H. pylori. Description: Survival of wildtype H. pylori in acid, in vitro. Format: cell-based, Helicobacter pylori. The source says: (§1) H. pylori bacteria which could not produce α-carbonic anhydrase gene (deletion mutants) were unable to survive in acid and were incapable of raising their periplasmic pH even with wildtype urease activity levels. […] This is illustrated in FIG. 1 of the appended drawings.
Therefore, it is now understood in accordance with the present invention that it is the combination of urease activation, expression of UreI and the periplasmic carbonic anhydrase that allows gastric colonization by H. pylori. […] Thus, targeting the acid biology of this pathogen provides specific H. pylori therapy. It is recognized in accordance with the present invention that within these three targets, a safe drug is only available for carbonic anhydrase.

The test system of assay [2] is H. pylori. Description: Periplasmic pH buffering of H. pylori in acid with urea, fluorescent pH sensitive dye BCECF (FIG. 1). It is filed as cell-based, Helicobacter pylori. Here is the method: as §1
Specifically, H. pylori was incubated in acid along with a fluorescent pH sensitive dye, BCECF, (bis-carboxy ethylcarboxy fluorescein) and then urea was added at 5 mM which is substantially the gastric juice concentration. In part A of the figure the increase in periplasmic pH is shown by the increased fluorescence of the dye indicating viable H. pylori bacteria.

For assay [3] the following is noted: cited from earlier work.
The target of the next assay is T1, urease (Helicobacter pylori, UniProt P69996).
T1 construct: endogenous in cells
The experiment in a line: Urease activity of H. pylori under in vitro treatment. It is filed as cell-based. Particulars: wildtype H. pylori.
Excerpt: as §1

Assay [4] concerns basal acid secretion and stimulated acid secretion. Particulars: humans, cited from earlier work.

T1 sequence (P69996 whole entry): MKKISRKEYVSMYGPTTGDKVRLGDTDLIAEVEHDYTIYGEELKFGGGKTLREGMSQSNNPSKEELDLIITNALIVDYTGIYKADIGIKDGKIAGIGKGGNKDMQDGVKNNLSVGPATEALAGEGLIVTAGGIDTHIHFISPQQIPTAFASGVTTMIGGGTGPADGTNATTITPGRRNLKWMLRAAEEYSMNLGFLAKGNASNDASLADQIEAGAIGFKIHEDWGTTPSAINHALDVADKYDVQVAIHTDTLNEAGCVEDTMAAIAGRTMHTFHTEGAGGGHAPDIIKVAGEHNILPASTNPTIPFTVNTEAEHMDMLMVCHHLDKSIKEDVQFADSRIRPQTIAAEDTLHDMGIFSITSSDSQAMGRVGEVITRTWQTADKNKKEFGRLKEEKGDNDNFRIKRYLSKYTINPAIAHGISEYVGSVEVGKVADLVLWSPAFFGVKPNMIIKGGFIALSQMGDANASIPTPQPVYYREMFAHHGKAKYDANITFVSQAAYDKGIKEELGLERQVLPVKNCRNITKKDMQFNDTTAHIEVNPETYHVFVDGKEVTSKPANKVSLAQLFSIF
T1 sequence (P14916 whole entry, further chain): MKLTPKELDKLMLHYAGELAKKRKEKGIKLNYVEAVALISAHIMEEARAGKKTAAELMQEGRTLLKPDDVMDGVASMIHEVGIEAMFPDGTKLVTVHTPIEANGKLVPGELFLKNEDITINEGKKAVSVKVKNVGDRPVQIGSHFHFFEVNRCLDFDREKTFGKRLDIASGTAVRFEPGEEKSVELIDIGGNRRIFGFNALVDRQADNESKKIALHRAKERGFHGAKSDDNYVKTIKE

For the molecule `CC(=O)Nc1nnc(S(N)(=O)=O)s1` [acetazolamide], the “loss of survival of H. pylori in acid” value in the assay with H. pylori [1] (in acid, drug present) is reported as > 3 log order of magnitude. For the same molecule, in the assay on H. pylori [1] (wildtype H. pylori, in vitro treatment), the “bacterial ability to survive in acid” value is “inhibited the bacterial ability to survive in acid”. The “periplasmic buffering of pH (BCECF fluorescence)” value in the assay with H. pylori [2] (normal H. pylori in acid, urea 5 mM, drug added to the medium, FIG. 1 part C) is recorded as “no periplasmic buffering of pH detected”. Besides, the “bacterial ability to buffer its periplasm” value in the assay with H. pylori [2] (wildtype H. pylori in acid, in vitro treatment) is “inhibited”. In addition, the relapse rate in assay [3] (2 years after treatment, treated for 30 days (Valean et al.)) was 6.2%; in assay [3] (3 week treatment, ulcer healing (Erdei et al.)) it was 11%. Besides, in assay [3] (118 gastric ulcer patients, oral, after 3-5 days), the “patients with intragastric pain abolished” value was 94%. Further, the “patients with complete ulcer healing (endoscopic evaluation)” value is reported as 87% in assay [3] (after 15 days of treatment) and 94% in assay [3] (after 30 days of treatment). Moreover, the “effect on urease activity” value on urease is “without affecting urease activity”. Further, the “reduction of histamine stimulated acid secretion (MAO)” value in assay [4] (histamine stimulated) was 83.2%. For the same molecule, the “reduction of basal acid output (BAO)” value in assay [4] was 92.3%. Further, the “return of normal acid secretion following cessation of treatment” value in assay [4] is 3-5. For the same molecule, the “time of treatment to maximal acid inhibition” value in assay [4] is 3 to 5 days.

These data come from patent US20040204493A1, “Carbonic anhydrase inhibitors as drugs to eradicate Helicobacter pylori in the mammalian, including human, stomach” (priority 2003, published 2004).
